Laboratory results taken from patent US20230181598A1, “FORMULATIONS AND METHODS OF TREATING COVID-19 AND PREVENTING INFECTION WITH SARS-CoV-2” (priority 2020, published 2023).
In brackets after ≈: the same amount, converted by molar mass. Several values for one entry are separate records, joined by “and”; a condition that tells them apart may be missing. Equal values may be shown once. Read-outs that look alike come from different tables or passages of the source.

Tests used:
[1] = cited from earlier work
[2] = tested on: SARS-CoV-2 (strain USA-WA1/2020); assay: microbe, parasite or virus in culture; type: cell-based; conditions: for Average Log10 CCID50 virus per 0.2 mL: average of duplicate inserts; for Log10 Reduction in virus titer (CCID50) vs virus control / Log10 CCID50 virus per 0.2 mL: dNHBE cells
[3] = 0.1 μM, single insert, day 5 after infection

CCOC(=O)C1=C(COCCN)NC(C)=C(C(=O)OC)C1c1ccccc1Cl (racemic) [Amlodipine besylate, 3-Ethyl-5-methyl (±)-2-[(2-aminoethoxy)methyl]4-(2-chlorophenyl)-1,4-dihydro-6-methyl-3,5-pyridinedicarboxylate, monobenzenesulphonate]
solubility in ethanol ([1]; ethanol): sparingly soluble | solubility in water ([1]; water): slightly soluble

CCOC(=O)C1=C(COCCN)NC(C)=C(C(=O)OC)C1c1ccccc1Cl (centres unmarked) [Amlodipine]
Average Log10 CCID50 virus per 0.2 mL ([2]; 0.1 μM, day 5): 3.6 Log10 CCID50 per 0.2 mL | Log10 Reduction in virus titer (CCID50) vs virus control ([2]; 0.1 μM, day 5): 0.7 Log10 | Log10 Reduction in virus titer (CCID50) vs virus control ([2]; 0.1 μM, day 5, listed as amlodipine): ~1 Log10 | Log10 CCID50 virus per 0.2 mL [2, 3]: 3.7 Log10 CCID50 per 0.2 mL and 3.5 Log10 CCID50 per 0.2 mL

CC#C[C@]1(O)CC[C@H]2[C@@H]3CCC4=CC(=O)CCC4=C3[C@@H](c3ccc(N(C)C)cc3)C[C@@]21C [Mifepristone, 11β-(4-dimethylaminophenyl)-17β-hydroxy-17α-(1-propynyl)-estra-4,9-dien-3-one]
Average Log10 CCID50 virus per 0.2 mL ([2]; 5 μM, day 5): 3.5 Log10 CCID50 per 0.2 mL | Log10 Reduction in virus titer (CCID50) vs virus control ([2]; 5 μM, day 5): 0.8 Log10 | Log10 Reduction in virus titer (CCID50) vs virus control ([2]; 5 μM, day 5, listed as mifepristone): ~1 Log10 | solubility ([1]; acidic media, pH 1.5): ~25 mg/mL (≈ 58.2 mM) | solubility ([1]; pH values above 2.5): less than 1 mg/mL

CCC(CC)COC(=O)[C@H](C)N[P@](=O)(OC[C@H]1O[C@@](C#N)(c2ccc3c(N)ncnn23)[C@H](O)[C@@H]1O)Oc1ccccc1 [Remdesivir]
Log10 CCID50 virus per 0.2 mL ([2]; 0.001 μM, day 5): 4.0 Log10 CCID50 per 0.2 mL | Log10 CCID50 virus per 0.2 mL ([2]; 0.01 μM, day 5): 3.3 Log10 CCID50 per 0.2 mL | Log10 CCID50 virus per 0.2 mL [2, 3]: 2.7 Log10 CCID50 per 0.2 mL | Log10 CCID50 virus per 0.2 mL ([2]; 1.0 μM, day 5): 2.0 Log10 CCID50 per 0.2 mL | EC90 ([2]; Severe acute respiratory syndrome coronavirus 2, Vero 76): 9 nM | EC90 ([2]; Severe acute respiratory syndrome coronavirus 2, Vero 76, 120 h, read-out: EC90 (concentration to reduce virus yield by 1 log10, regression analysis) (converted)): 9 nM
